# Test results: PubChem BioAssay AID1963847 (Molecular Pharmacology Branch, DTP, NCI, 2024)
# Tested on: 415267-285-R-J2-PDC complex spheroid viability
# Test: Anticancer human tumor 415267-285-R-J2-PDC patient-derived breast carcinoma cell line growth inhibition [POLQ]
# Conditions: for IC50: curve of first compound; for viability, T/C: stronger effect = lower value
# How it was run: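 Complex spheroid viability model combining PDC tumour cells with endothelial (HUVEC) and MSC stromal cells. Novobiocin, ART-558 or RP6685 were tested singly and in combination with standard and investigational anticancer drugs. Each was titrated in half-log steps from near clinical Cmax, or from 10 microM where Cmax was unknown.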
# [1] = second compound 0.0316 µM, first compound 0.0316 µM
# [2] = second compound 0.0316 µM, first compound 0.1 µM
# [3] = second compound 0.0316 µM, first compound 0.316 µM
# [4] = second compound 0.0316 µM, first compound 1 µM
# [5] = second compound 0.1 µM, first compound 0.0316 µM
# [6] = second compound 0.1 µM, first compound 0.1 µM
# [7] = second compound 0.1 µM, first compound 0.316 µM
# [8] = second compound 0.1 µM, first compound 1 µM
# [9] = second compound 0.316 µM, first compound 0.0316 µM
# [10] = second compound 0.316 µM, first compound 0.1 µM
# [11] = second compound 0.316 µM, first compound 0.316 µM
# [12] = second compound 0.316 µM, first compound 1 µM
# [13] = second compound 1 µM, first compound 0.0316 µM
# [14] = second compound 1 µM, first compound 0.1 µM
# [15] = second compound 1 µM, first compound 0.316 µM
# [16] = second compound 1 µM, first compound 1 µM
# [17] = second compound 3.16 µM, first compound 0.0316 µM
# [18] = second compound 3.16 µM, first compound 0.1 µM
# [19] = second compound 3.16 µM, first compound 0.316 µM
# [20] = second compound 3.16 µM, first compound 1 µM
# [21] = second compound 10 µM, first compound 0.0316 µM
# [22] = second compound 10 µM, first compound 0.1 µM
# [23] = second compound 10 µM, first compound 0.316 µM
# [24] = second compound 10 µM, first compound 1 µM
# [25] = second compound 0.0316 µM, first compound 3.16 µM
# [26] = second compound 0.0316 µM, first compound 10 µM
# [27] = second compound 0.1 µM, first compound 3.16 µM
# [28] = second compound 0.1 µM, first compound 10 µM
# [29] = second compound 0.316 µM, first compound 3.16 µM
# [30] = second compound 0.316 µM, first compound 10 µM
# [31] = second compound 1 µM, first compound 3.16 µM
# [32] = second compound 1 µM, first compound 10 µM
# [33] = second compound 3.16 µM, first compound 3.16 µM
# [34] = second compound 3.16 µM, first compound 10 µM
# [35] = second compound 10 µM, first compound 3.16 µM
# [36] = second compound 10 µM, first compound 10 µM
# 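Also: spheroids exposed to compounds for one week before readout.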
# 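For viability, T/C in this document: luminescence used as stand-in measure of viable cells; 100% = DMSO vehicle control viability.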
compound,measurement,setting,value
COc1cccc(OCCCN)c1-c1cc(Nc2cnc(C#N)cn2)n[nH]1 + Nc1ccc(C#CCN(C(=O)Cc2ncc(C(F)(F)F)cc2C(F)(F)F)c2ccc(F)cc2)nn1,IC50,second compound 0.0316 µM,7.16 nM
same,IC50,second compound 0.1 µM,6.19 nM
same,IC50,second compound 0.316 µM,6.72 nM
same,IC50,second compound 1 µM,5.96 nM
same,IC50,second compound 3.16 µM,5.77 nM
same,IC50,second compound 10 µM,5.9 nM
same,"viability, T/C","second compound 0.0316 µM, first compound 0.00316 µM",99%
same,"viability, T/C","second compound 0.0316 µM, first compound 0.01 µM",29.9%
same,"viability, T/C",[1],6.2%
same,"viability, T/C",[2],5.95%
same,"viability, T/C",[3],4.32%
same,"viability, T/C",[4],4.9%
same,"viability, T/C","second compound 0.1 µM, first compound 0.00316 µM",94.9%
same,"viability, T/C","second compound 0.1 µM, first compound 0.01 µM",18%
same,"viability, T/C",[5],5.46%
same,"viability, T/C",[6],5.78%
same,"viability, T/C",[7],5.23%
same,"viability, T/C",[8],3.98%
same,"viability, T/C","second compound 0.316 µM, first compound 0.00316 µM",119%
same,"viability, T/C","second compound 0.316 µM, first compound 0.01 µM",13.8%
same,"viability, T/C",[9],5.29%
same,"viability, T/C",[10],4.56%
same,"viability, T/C",[11],4.96%
same,"viability, T/C",[12],4.07%
same,"viability, T/C","second compound 1 µM, first compound 0.00316 µM",101%
same,"viability, T/C","second compound 1 µM, first compound 0.01 µM",8.35%
same,"viability, T/C",[13],5.83%
same,"viability, T/C",[14],5.25%
same,"viability, T/C",[15],5.41%
same,"viability, T/C",[16],4.11%
same,"viability, T/C","second compound 3.16 µM, first compound 0.00316 µM",94.9%
same,"viability, T/C","second compound 3.16 µM, first compound 0.01 µM",9.02%
same,"viability, T/C",[17],5.49%
same,"viability, T/C",[18],5.19%
same,"viability, T/C",[19],6.6%
same,"viability, T/C",[20],4.85%
same,"viability, T/C","second compound 10 µM, first compound 0.00316 µM",100%
same,"viability, T/C","second compound 10 µM, first compound 0.01 µM",7.29%
same,"viability, T/C",[21],6.73%
same,"viability, T/C",[22],5.13%
same,"viability, T/C",[23],4.64%
same,"viability, T/C",[24],4.87%
Nc1ccn(C2OC(CO)C(O)C2(F)F)c(=O)n1 (stereo not drawn) + Nc1ccc(C#CCN(C(=O)Cc2ncc(C(F)(F)F)cc2C(F)(F)F)c2ccc(F)cc2)nn1,IC50,second compound 0.0316 µM,< 31.6 nM
same,IC50,second compound 0.1 µM,< 31.6 nM
same,IC50,second compound 0.316 µM,< 31.6 nM
same,IC50,second compound 1 µM,< 31.6 nM
same,IC50,second compound 3.16 µM,< 31.6 nM
same,IC50,second compound 10 µM,< 31.6 nM
same,"viability, T/C",[1],31.7%
same,"viability, T/C",[2],6.95%
same,"viability, T/C",[3],5.45%
same,"viability, T/C",[4],4.21%
same,"viability, T/C",[25],5.5%
same,"viability, T/C",[26],4.63%
same,"viability, T/C",[5],33.3%
same,"viability, T/C",[6],7.84%
same,"viability, T/C",[7],5.21%
same,"viability, T/C",[8],4.26%
same,"viability, T/C",[27],4.99%
same,"viability, T/C",[28],4.24%
same,"viability, T/C",[9],42.2%
same,"viability, T/C",[10],6.2%
same,"viability, T/C",[11],4.82%
same,"viability, T/C",[12],3.94%
same,"viability, T/C",[29],6.45%
same,"viability, T/C",[30],4.74%
same,"viability, T/C",[13],25.8%
same,"viability, T/C",[14],6.29%
same,"viability, T/C",[15],5.24%
same,"viability, T/C",[16],5.68%
same,"viability, T/C",[31],5.32%
same,"viability, T/C",[32],5.07%
same,"viability, T/C",[17],17.7%
same,"viability, T/C",[18],6.56%
same,"viability, T/C",[19],5.45%
same,"viability, T/C",[20],5.13%
same,"viability, T/C",[33],5.35%
same,"viability, T/C",[34],5.11%
same,"viability, T/C",[21],14.4%
same,"viability, T/C",[22],6.3%
same,"viability, T/C",[23],5.2%
same,"viability, T/C",[24],4.36%
same,"viability, T/C",[35],4.56%
same,"viability, T/C",[36],4.89%
O=C(c1cc(Cc2n[nH]c(=O)c3ccccc23)ccc1F)N1CCN(C(=O)C2CC2)CC1 + Nc1ccc(C#CCN(C(=O)Cc2ncc(C(F)(F)F)cc2C(F)(F)F)c2ccc(F)cc2)nn1,IC50,second compound 0.0316 µM,> 10000 nM
same,IC50,second compound 0.1 µM,> 10000 nM
same,IC50,second compound 0.316 µM,> 10000 nM
same,IC50,second compound 1 µM,> 10000 nM
same,IC50,second compound 3.16 µM,> 10000 nM
same,IC50,second compound 10 µM,> 10000 nM
same,"viability, T/C",[1],100%
same,"viability, T/C",[2],106%
same,"viability, T/C",[3],106%
same,"viability, T/C",[4],97.5%
same,"viability, T/C",[25],96%
same,"viability, T/C",[26],99%
same,"viability, T/C",[5],98.4%
same,"viability, T/C",[6],103%
same,"viability, T/C",[7],109%
same,"viability, T/C",[8],97.2%
same,"viability, T/C",[27],108%
same,"viability, T/C",[28],90.8%
same,"viability, T/C",[9],106%
same,"viability, T/C",[10],115%
same,"viability, T/C",[11],101%
same,"viability, T/C",[12],114%
same,"viability, T/C",[29],101%
same,"viability, T/C",[30],105%
same,"viability, T/C",[13],108%
same,"viability, T/C",[14],109%
same,"viability, T/C",[15],108%
same,"viability, T/C",[16],98.5%
same,"viability, T/C",[31],110%
same,"viability, T/C",[32],108%
same,"viability, T/C",[17],101%
same,"viability, T/C",[18],101%
same,"viability, T/C",[19],100%
same,"viability, T/C",[20],101%
same,"viability, T/C",[33],105%
same,"viability, T/C",[34],115%
same,"viability, T/C",[21],98.9%
same,"viability, T/C",[22],96.9%
same,"viability, T/C",[23],113%
same,"viability, T/C",[24],107%
same,"viability, T/C",[35],97.8%
same,"viability, T/C",[36],102%
O=c1[nH]cc(F)c(=O)[nH]1 + Nc1ccc(C#CCN(C(=O)Cc2ncc(C(F)(F)F)cc2C(F)(F)F)c2ccc(F)cc2)nn1,IC50,second compound 0.0316 µM,435 nM
same,IC50,second compound 0.1 µM,262 nM
same,IC50,second compound 0.316 µM,283 nM
same,IC50,second compound 1 µM,307 nM
same,IC50,second compound 3.16 µM,268 nM
same,IC50,second compound 10 µM,309 nM
same,"viability, T/C",[1],101%
same,"viability, T/C",[2],93%
same,"viability, T/C",[3],57.5%
same,"viability, T/C",[4],21.4%
same,"viability, T/C",[25],29.9%
same,"viability, T/C",[26],40.1%
same,"viability, T/C",[5],86.4%
same,"viability, T/C",[6],85.5%
same,"viability, T/C",[7],43%
same,"viability, T/C",[8],20.9%
same,"viability, T/C",[27],30%
same,"viability, T/C",[28],38.5%
same,"viability, T/C",[9],93.6%
same,"viability, T/C",[10],97%
same,"viability, T/C",[11],45.1%
same,"viability, T/C",[12],24.4%
same,"viability, T/C",[29],24.6%
same,"viability, T/C",[30],46.4%
same,"viability, T/C",[13],97%
same,"viability, T/C",[14],92.7%
same,"viability, T/C",[15],49.1%
same,"viability, T/C",[16],27.1%
same,"viability, T/C",[31],30.4%
same,"viability, T/C",[32],35.4%
same,"viability, T/C",[17],106%
same,"viability, T/C",[18],90.7%
same,"viability, T/C",[19],44.5%
same,"viability, T/C",[20],22.4%
same,"viability, T/C",[33],24.1%
same,"viability, T/C",[34],42.3%
same,"viability, T/C",[21],113%
same,"viability, T/C",[22],87%
same,"viability, T/C",[23],52.5%
same,"viability, T/C",[24],26.5%
same,"viability, T/C",[35],26.6%
same,"viability, T/C",[36],39%
